Counter-ions that a name gives are not always drawn.
Test system: MC3T3-E1 cells
Experiment: ALP activity, differentiation of osteoblast cells
Type: cell-based
Conditions: Mus musculus, MC3T3-E1, 144 h; MC3T3E1 cells treated with 10 μM compound and OF; relates activity to OF-only group (100%); higher = more efficacious
Experimental: To examine the effects of the inventive indenone derivatives on the differentiation and activation of osteoblast cells, the activity and expression of alkaline phosphatase (ALP), a marker for the differentiation of osteoblast cells, and the bone nodule formation using a mouse derived osteoblast-like cells, MC3T3-E1 (ATCC, Japan) or a primary mouse calvaria derived preosteoblastic cells were observed.
MC3T3-E 1 cells were seeded in a medium containing osteogenic factors (OF) such as ascorbic acids and β-glycerophosphates (b-GP), and each compound of Examples was added thereto at a concentration of 0.1, 1 and 10 μM. The cells were incubated for 6 days (MC3T3-E1 cells) or 7 days (primary mouse calvaria derived preosteoblastic cells) in a 37° C. CO2 incubator. Then, the culture medium was replaced with a fresh medium together with the test compound every two or three days. On the last day, the medium was centrifuged to remove the supernatant, and the cells were washed with PBS. The washed cells were subjected to a 3-cycle freege-thaw treatment using a −70° C. deep freezer to allow enzymes elute in a lysis buffer. The lysed protein was quantified, followed by measurement of ALP activity using 4-nitrophenylphosphate.
Further, a group treated only with DMSO or OF was tested for ALP activities for comparison.

For `Cc1ccc(C2=C(c3ccc(F)cc3F)c3ccc(OCCN4CCN(S(C)(=O)=O)CC4)cc3C2=O)cc1` [Example 116, 3-(2,4-difluorophenyl)-6-{2-[4-(methylsulfonyl)piperazin-1-yl]ethoxy}-2-p-tolyl-1H-inden-1-one], the activity at 10 µM was 71%.

`NC(=O)c1ccc(C2=C(c3ccccc3)c3ccc(OCCN4CCOCC4)cc3C2=O)cc1` [Example 4, 4-(6-(2-morpholinoethoxy)-1-oxo-3-phenyl-1H-inden-2-yl)benzamide] gave an activity at 10 µM of 128%.

`COc1ccc(C2=C(c3cc(F)cc(F)c3)c3ccc(OCCN4CCS(=O)(=O)CC4)cc3C2=O)cn1` [Example 93, 3-(3,5-difluorophenyl)-2-(6-methoxypyridin-3-yl)-6-[2-(1,1-dioxothiomorpholin-4-yl)ethoxy]-1H-inden-1-one hydrochloride salt] gave an activity at 10 µM of 155%.

For `CS(=O)(=O)N1CCN(CCOc2ccc3c(c2)C(=O)C(c2cncnc2)=C3c2cc(F)cc(F)c2)CC1` [Example 52, 3-(3,5-difluorophenyl)-6-(2-(4-(methylsulfonyl)piperazin-1-yl)ethoxy)-2-(pyrimidin-5-yl)-1H-inden-1-one hydrochloride salt], the activity at 10 µM was 50%.

`CC(=O)N1CCN(CCCOc2ccc3c(c2)C(=O)C(c2cccnc2)=C3c2cc(F)cc(F)c2)CC1` [Example 67, 6-(3-(4-acetylpiperazin-1-yl)propoxy)-3-(3,5-difluorophenyl)-2-(pyridin-3-yl)-1H-inden-1-one hydrochloride salt] was tested, and the activity at 10 µM was 116%.

`Cc1ccc(C2=C(c3ccc(F)cc3F)c3ccc(OCCCN4CCN(S(C)(=O)=O)CC4)cc3C2=O)cc1` [Example 108, 3-(2,4-difluorophenyl)-6-{3-[4-(methylsulfonyl)piperazin-1-yl]propoxy}-2-p-tolyl-1H-inden-1-one] gave an activity at 10 µM of 111%.

`O=C1C(c2ccc(F)c(F)c2)=C(c2ccccc2)c2ccc(OCCN3CCOCC3)cc21` [Example 18, 6-(2-morpholinoethoxy)-2-(3,4-difluorophenyl)-3-phenyl-1H-inden-1-one] showed an activity at 10 µM of 349%.

`O=C1C(c2cccnc2)=C(c2cc(F)cc(F)c2)c2ccc(OCCN3CCOCC3)cc21` [Example 36, 6-(2-morpholinoethoxy)-3-(3,5-difluorophenyl)-2-(pyridin-3-yl)-1H-inden-1-one hydrochloride salt] showed an activity at 10 µM of 224%.

In the case of `COc1ccc(C2=C(c3ccc(F)cc3F)c3ccc(OCCCN4CCN(S(C)(=O)=O)CC4)cc3C2=O)cc1F` [Example 110, 2-(3-fluoro-4-methoxyphenyl)-3-(2,4-difluorophenyl)-6-{3-[4-(methylsulfonyl)piperazin-1-yl]propoxy}-1H-inden-1-one], the activity at 10 µM is reported as 207%.

For `Cc1ccc(C2=C(c3ccccc3)c3ccc(OCCN4CCOCC4)cc3C2=O)cc1` [Example 11, 6-(2-morpholinoethoxy)-3-phenyl-2-p-tolyl-1H-inden-1-one], the activity at 10 µM was 649%.

For `O=C1C(c2ccc(Cl)s2)=C(c2ccccc2)c2ccc(OCCN3CCOCC3)cc21` [Example 86, 2-(5-chlorothiophen-2-yl)-6-(2-morpholinoethoxy)-3-phenyl-1H-inden-1-one], the activity at 10 µM was 77%.

`CS(=O)(=O)N1CCN(CCOc2ccc3c(c2)C(=O)C(c2ccc(F)c(F)c2)=C3c2ccc(Cl)cc2)CC1` [Example 53, 3-(4-chlorophenyl)-2-(3,4-difluorophenyl)-6-(2-(4-(methylsulfonyl)piperazin-1-yl)ethoxy)-1H-inden-1-one hydrochloride salt] gave an activity at 10 µM of 27%.

`O=C1C(c2cccnc2)=C(c2cccc(F)c2)c2ccc(OCCN3CCOCC3)cc21` [Example 81, 6-(2-morpholinoethoxy)-3-(3-fluorophenyl)-2-(pyridin-3-yl)-1H-inden-1-one] was tested, and the activity at 10 µM was 116%.

With `COc1ccc(C2=C(c3ccc(F)cc3F)c3ccc(OCCCN4CCN(S(C)(=O)=O)CC4)cc3C2=O)cn1` [Example 109, 3-(2,4-difluorophenyl)-6-{3-[4-(methylsulfonyl)piperazin-1-yl]propoxy}-2-(6-methoxypyridin-3-yl)-1H-inden-1-one] the activity at 10 µM was 177%.

With `CS(=O)(=O)N1CCN(CCOc2ccc3c(c2)C(=O)C(c2cccnc2)=C3c2cc(F)cc(F)c2)CC1` [Example 59, 3-(3,5-difluorophenyl)-6-(2-(4-(methylsulfonyl)piperazin-1-yl)ethoxy)-2-(pyridin-3-yl)-1H-inden-1-one hydrochloride salt] the activity at 10 µM was 254%.

With `CS(=O)(=O)N1CCC(CCOc2ccc3c(c2)C(=O)C(c2cccnc2)=C3c2cc(F)cc(F)c2)CC1` [Example 73, 3-(3,5-difluorophenyl)-6-(2-(1-(methylsulfonyl)piperidin-4-yl)ethoxy)-2-(pyridin-3-yl)-1H-inden-1-one hydrochloride salt] the activity at 10 µM was 150%.

With `COc1ccc(C2=C(c3cc(F)cc(F)c3)c3ccc(OCCN4CCN(S(C)(=O)=O)CC4)cc3C2=O)cc1F` [Example 99, 2-(3-fluoro-4-methoxyphenyl)-3-(3,5-difluorophenyl)-6-{2-[4-(methylsulfonyl)piperazin-1-yl]ethoxy}-1H-inden-1-one hydrochloride salt] the activity at 10 µM was 212%.

Molecule `CC(C)(C)OC(=O)N1CCN(CCOc2ccc3c(c2)C(=O)C(c2cccnc2)=C3c2cc(F)cc(F)c2)CC1` [Example 58, tert-Butyl 4-(2-(3-(3,5-difluorophenyl)-1-oxo-2-(pyridin-3-yl)-1H-inden-6-yloxy)ethyl)piperazine-1-carboxylate] has an activity at 10 µM of 19%.

Molecule `O=C1C(c2ccc(C(F)(F)F)cc2)=C(c2ccc(F)cc2)c2ccc(OCCN3CCOCC3)cc21` [Example 27, 6-(2-morpholinoethoxy)-2-(4-(trifluoromethyl)phenyl)-3-(4-fluorophenyl)-1H-inden-1-one] has an activity at 10 µM of 75%.

For `COc1ccc(C2=C(c3ccc(F)cc3F)c3ccc(OCCN4CCS(=O)(=O)CC4)cc3C2=O)cn1` [Example 113, 3-(2,4-difluorophenyl)-2-(6-methoxypyridin-3-yl)-6-[2-(1,1-dioxothiomorpholin-4-yl)ethoxy]-1H-inden-1-one], the activity at 10 µM was 217%.

Molecule `O=C1C(c2ccc(F)c(F)c2)=C(c2ccc(C(F)(F)F)cc2)c2ccc(OCCN3CCOCC3)cc21` [Example 34, 6-(2-morpholinoethoxy)-3-(4-(trifluoromethyl)phenyl)-2-(3,4-difluorophenyl)-1H-inden-1-one] has an activity at 10 µM of 78%.

`CN1CCC(CCOc2ccc3c(c2)C(=O)C(c2cccnc2)=C3c2cc(F)cc(F)c2)CC1` [Example 71, 3-(3,5-difluorophenyl)-6-(2-(1-methylpiperidin-4-yl)ethoxy)-2-(pyridin-3-yl)-1H-inden-1-one hydrochloride salt] was tested, and the activity at 10 µM was 19%.

Work on `CC(C)(C)OC(=O)N1CCN(CCOc2ccc3c(c2)C(=O)C(c2cccnc2)=C3c2ccccc2)CC1` [Example 44, tert-butyl 4-(2-(1-oxo-3-phenyl-2-(pyridin-3-yl)-1H-inden-6-yloxy)ethyl)piperazine-1-carboxylate] yielded an activity at 10 µM of 710%.

`COc1ccc(C2=C(c3ccc(F)cc3F)c3ccc(OCCN4CCN(S(C)(=O)=O)CC4)cc3C2=O)cn1` [Example 117, 3-(2,4-difluorophenyl)-2-(6-methoxypyridin-3-yl)-6-{2-[4-(methylsulfonyl)piperazin-1-yl]ethoxy}-1H-inden-1-one] gave an activity at 10 µM of 98%.

For `CN(C)CCCOc1ccc2c(c1)C(=O)C(c1cccnc1)=C2c1cc(F)cc(F)c1` [Example 60, 3-(3,5-difluorophenyl)-6-(3-(dimethylamino)propoxy)-2-(pyridin-3-yl)-1H-inden-1-one hydrochloride salt], the activity at 10 µM was 19%.

With `CN(C)CCCOc1ccc2c(c1)C(=O)C(c1cccnc1)=C2c1ccccc1` [Example 57, 6-(3-(dimethylamino)propoxy)-3-phenyl-2-(pyridin-3-yl)-1H-inden-1-one hydrochloride salt] the activity at 10 µM was 62%.

Work on `O=C1C(c2cccnc2)=C(c2ccccc2F)c2ccc(OCCN3CCOCC3)cc21` [Example 80, 6-(2-morpholinoethoxy)-3-(2-fluorophenyl)-2-(pyridin-3-yl)-1H-inden-1-one] yielded an activity at 10 µM of 74%.

In the case of `O=C1C(c2ccc(C(F)(F)F)cc2)=C(c2cc(F)cc(F)c2)c2ccc(OCCN3CCOCC3)cc21` [Example 37, 6-(2-morpholinoethoxy)-2-(4-(trifluoromethyl)phenyl)-3-(3,5-difluorophenyl)-1H-inden-1-one], the activity at 10 µM is reported as 80%.

For `O=C1C(c2ccc(Oc3ccccc3)cc2)=C(c2ccccc2)c2ccc(OCCN3CCOCC3)cc21` [Example 21, 6-(2-morpholinoethoxy)-2-(4-phenoxyphenyl)-3-phenyl-1H-inden-1-one], the activity at 10 µM was 130%.

In the case of `O=C1C(c2ccc(Cl)cc2)=C(c2ccccc2)c2ccc(OCCN3CCOCC3)cc21` [Example 23, 6-(2-morpholinoethoxy)-2-(4-chlorophenyl)-3-phenyl-1H-inden-1-one], the activity at 10 µM is reported as 162%.

Work on `CS(=O)(=O)N1CCN(CCCOc2ccc3c(c2)C(=O)C(c2cnc4ccccc4c2)=C3c2ccc(F)cc2F)CC1` [Example 111, 3-(2,4-difluorophenyl)-6-{3-[4-(methylsulfonyl)piperazin-1-yl]propoxy}-2-(quinolin-3-yl)-1H-inden-1-one] yielded an activity at 10 µM of 117%.

`O=C1C(c2ccc(F)c(F)c2)=C(c2ccc(F)cc2)c2ccc(OCCN3CCOCC3)cc21` [Example 26, 6-(2-morpholinoethoxy)-2-(3,4-difluorophenyl)-3-(4-fluorophenyl)-1H-inden-1-one] was tested, and the activity at 10 µM was 79%.

Source: US8877747B2, “Indenone derivative and pharmaceutical composition comprising same” (Korea Research Institute of Chemical Technology, priority 2009, dated 2014)
